Measurements reported in publication PMC9458148 (Molecules, 2022).
Read-outs that look alike come from different tables or passages of the source.

Assays:
Tyrosinase [1] = biological target: T1, Tyrosinase (Agaricus bisporus, UniProt C7FF04); assay: Enzyme kinetics on tyrosinase (Lineweaver–Burk and Dixon plots); format: biochemical; details: various substrate concentrations
Procedure: The v0 was calculated at ~10% of the substrate conversion rate by tyrosinase. The results are shown as Lineweaver–Burk plots (Figure 2A–C and Table 1).
(§1) To assess the inhibitory effect of compounds on tyrosinase, 130 μL tyrosinase in 0.05 mM phosphate buffer (pH 6.8) was aliquoted into 96-well plates, and 20 μL of each compound at concentrations ranging from 0.5 to 0.0075 mM was added. Next, 50 μL 1.2 mM L-tyrosine in phosphate buffer was diluted to calculate the inhibitory activity. Finally, 50 μL 10–0.62 mM l-tyrosine in buffer was added to analyze the initial velocity (v0). Twenty minutes after starting the reaction, the amount of product was detected at 475 nm. The inhibitory activity was calculated using the following equation: Inhibitory activity rate (%) = [(ΔC − ΔS)/ΔC] × 100, where C and S are the intensity of control and inhibitor after 20 min, respectively.
Target sequence in this assay (C7FF04 2-392): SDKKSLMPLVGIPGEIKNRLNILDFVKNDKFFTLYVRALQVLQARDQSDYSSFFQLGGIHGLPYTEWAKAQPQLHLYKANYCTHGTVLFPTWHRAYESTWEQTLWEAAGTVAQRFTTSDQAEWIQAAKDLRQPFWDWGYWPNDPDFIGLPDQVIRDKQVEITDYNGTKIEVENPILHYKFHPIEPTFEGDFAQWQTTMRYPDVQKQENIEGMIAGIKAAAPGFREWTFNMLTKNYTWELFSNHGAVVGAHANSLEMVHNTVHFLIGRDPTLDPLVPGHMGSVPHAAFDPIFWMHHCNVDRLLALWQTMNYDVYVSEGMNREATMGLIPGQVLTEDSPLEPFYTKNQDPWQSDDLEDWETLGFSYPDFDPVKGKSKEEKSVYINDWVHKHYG

Tyrosinase [2] = biological target: T1, Tyrosinase; assay: Tyrosinase assay (inhibitory activity, L-tyrosine substrate, product detected at 475 nm); format: biochemical; set-up: purchased Sigma–Aldrich T3824; details: for Inhibitory Ratio at 50 μM: 50 μM compound
Procedure: as §1
Target sequence in this assay (C7FF04 1-392 limits assumed): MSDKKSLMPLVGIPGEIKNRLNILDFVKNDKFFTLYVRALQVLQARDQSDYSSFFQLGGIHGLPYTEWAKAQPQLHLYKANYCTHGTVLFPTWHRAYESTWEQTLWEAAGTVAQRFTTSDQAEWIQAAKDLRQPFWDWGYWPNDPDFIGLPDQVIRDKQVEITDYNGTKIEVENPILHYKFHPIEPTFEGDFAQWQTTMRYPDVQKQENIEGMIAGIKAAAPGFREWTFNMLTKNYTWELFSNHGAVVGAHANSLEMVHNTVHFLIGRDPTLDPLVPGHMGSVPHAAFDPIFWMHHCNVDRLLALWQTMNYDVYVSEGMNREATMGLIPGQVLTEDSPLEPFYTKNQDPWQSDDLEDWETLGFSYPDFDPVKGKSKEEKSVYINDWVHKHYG

[3] = Mean ± SEM, tested three times, read-out: IC50

Row | Binding Mode (Tyrosinase [1]) | Inhibitory activity on tyrosinase (in words) (Tyrosinase [2]) | Inhibitory Ratio at 50 μM (Tyrosinase [2]; tested three times) [%] | IC50 (Tyrosinase [2]; [3]) [µM] | SMILES | IC50 (Tyrosinase [2]) [µM]
1 | Competitive inhibitor | most potent inhibitors | 69.2 ± 1.0 | 10.3 ± 1 | COc1cc(-c2[o+]c3cc(O)cc(O)c3cc2O[C@@H]2O[C@H](CO)[C@@H](O)[C@H](O)[C@H]2O)cc(O)c1O [Compound 2, petunidin 3-O-glucoside] | –
2 | – | – | 6.5 ± 2.1 | – | OC[C@H]1O[C@@H](Oc2cc3c(O)cc(O)cc3[o+]c2-c2ccc(O)cc2)[C@H](O)[C@@H](O)[C@@H]1O [Compound 6, callistephin (pelargonidin 3-O-glucoside)] | –

More lines, now with the values behind:

Row | SMILES | Binding Mode (Tyrosinase [1]) | Inhibitory activity on tyrosinase (in words) (Tyrosinase [2]) | Inhibitory Ratio at 50 μM (Tyrosinase [2]; tested three times) [%] | IC50 (Tyrosinase [2]; [3]) [µM] | IC50 (Tyrosinase [2]) [µM]
3 | Oc1cc(O)c2ccc(-c3ccc(O)c(O)c3)[o+]c2c1 [Compound 1, luteolinidin] | Competitive inhibitor | most potent inhibitors | – | – | 3.7 ± 0.8
4 | OC[C@H]1O[C@@H](Oc2cc3c(O)cc(O)cc3[o+]c2-c2cc(O)c(O)c(O)c2)[C@H](O)[C@@H](O)[C@H]1O [Compound 3, delphinidin 3-O-galactoside] | Competitive inhibitor | moderate inhibitory activity | 55.2 ± 0.9 | 41.3 ± 3.2 | –
5 | OC[C@H]1O[C@@H](Oc2cc3c(O)cc(O)cc3[o+]c2-c2ccc(O)c(O)c2)[C@H](O)[C@@H](O)[C@@H]1O [Compound 4, kuromanin (cyanidin 3-O-glucoside)] | – | – | −1.9 ± 40.0 | – | –
6 | OC[C@H]1O[C@@H](Oc2cc3c(O)cc(O)cc3[o+]c2-c2cc(O)c(O)c(O)c2)[C@H](O)[C@@H](O)[C@@H]1O [Compound 5, delphinidin 3-O-glucoside] | – | – | 47.5 ± 3.2 | – | –
